In patent US7897582B2, “Oligonucleotide compositions and methods for the modulation of the expression of B7 protein” (Isis Pharmaceuticals, Inc., priority 2003, dated 2011):
e = 2'-O-(2-methoxyethyl) (MOE); d = 2'-deoxy (DNA)

Assays:
B7-1 mRNA = assay: Mouse B7-1 target mRNA reduction in L-929 fibroblasts (RT-PCR); type: cell-based; details: 100 nM
Method: Both of these oligonucleotides are phosphorothioates with 2′-MOE modifications on nucleotides 1-5 and 16-20, and 2′-deoxy at positions 6-15. These ASOs were identified by mouse-targeted ASO screening by target mRNA reduction in mouse cell lines. For B7-2, 19 mouse-targeted ASOs were screened by target mRNA reduction (Northern analysis) in IC-21 macrophages. Dose-response confirmation led to selection of ISIS 121874 (>70% reduction at 25 nM). For B7-1, 22 mouse-targeted ASOs were screened by target mRNA reduction (RT-PCR) in L-929 fibroblasts. Dose-response confirmation led to selection of ISIS 121844 (>70% reduction at 100 nM). No cross hybridization was predicted, and no cross-target reduction was detected in transfected cells.

B7.2 mRNA = B7.2 mRNA in lung and draining lymph nodes of ovalbumin-challenged mice, quantitative RT-PCR; type: in vivo, mouse
Method: (§1) RNA was harvested from experimental lungs removed on day 28 of the OVA protocol. B7.2 and B7.1 levels were measured by quantitative RT-PCR using the Applied Biosystems PRISM 7700 Sequence Detection System (Applied Biosystems, Foster City, Calif.). Primers and probes used for these studies were synthesized by Operon Technologies (Alameda, Calif.).

[1] = system: ovalbumin-challenged Balb/c mice; assay: Ovalbumin-induced mouse model of allergic inflammation (Penh, BAL cells, histology, cytokines, spleen); type: in vivo
Method: In the mouse model of allergic inflammation, mice were sensitized and challenged with aerosolized chicken ovalbumin (OVA). Airway responsiveness was assessed by inducing airflow obstruction with a methacholine aerosol using a noninvasive method. This methodology utilized unrestrained conscious mice that are placed into the main chamber of a plthysmograph (Buxco Electronics, Inc., Troy, N.Y.). Pressure differences between this chamber and a reference chamber were used to extrapolate minute volume, breathing frequency and enhanced pause (Penh). Penh is a dimensionless parameter that is a function of total pulmonary airflow in mice (i.e., the sum of the airflow in the upper and lower respiratory tracts) during the respiratory cycle of the animal. The lower the Penh, the greater the airflow. This parameter closely correlates with lung resistance as measured by traditional invasive techniques using ventilated animals (Hamelmann . . . Gelfand, 1997). Dose-response data were plotted as raw Penh values to increasing concentrations of methacholine. […]
Female Balb/c mice (Charles Rivers Laboratory, Taconic Farms, N.Y.) were maintained in micro-isolator cages housed in a specific pathogen-free (SPF) facility. […] Animals were analyzed about 24 hours following the last nebulization using the Buxco electronics Biosystem. Lung function (Penh), lung histology (cell infiltration and mucus production), target mRNA reduction in the lung, inflammation (BAL cell type & number, cytokine levels), spleen weight and serum AST/ALT were determined. […]
Cytospins of cells recovered from BAL fluid were prepared using a Shandon Cytospin 3 (Shandon Scientific LTD, Cheshire, England). […] Total cell counts were quantified by hemocytometer and, together with the percent type by differential, were used to calculate specific cell number.
Before resection, lungs were inflated with 0.5 ml of 10% phosphate-buffered formalin and fixed overnight at 4° C. […] Parasagittal sections were analyzed by bright-field microscopy. Mucus cell content was assessed as the airway epithelium staining with PAS. […]

B7.1 mRNA = B7.1 mRNA in lung and draining lymph nodes of ovalbumin-challenged mice, quantitative RT-PCR; type: in vivo, mouse; details: lung tissue and draining lymph nodes of allergen-challenged mice
Method: as §1

“ISIS 121844: antisense oligonucleotide targeted to mouse B7.1; SEQ ID NO: 286; phosphorothioate, 2′-MOE on nucleotides 1-5 and 16-20 (antisense GCTCAGCCTTTCCACTTCAG; sugars from the 5' end e5 d10 e5, all phosphorothioate, methylation of C not given here)” was tested, and the “target mRNA reduction” value (B7-1 mRNA) was greater than 70%, the “reduction of B7.2 mRNA in the lung” value (B7.2 mRNA; lung) was 80% and the “B7.2 mRNA” value (B7.2 mRNA; lung tissue and draining lymph nodes of allergen-challenged mice) was “reduced”. The allergen-induced airway eosinophilia ([1]; BAL fluid) was “reduced”, the “airway response to methacholine (Penh response)” value ([1]; intratracheal ASO, days 15-26) was “no effect” and the “PMN numbers in BAL fluid” value ([1]; mouse, in vivo) was “reduced”. The “B7.1 mRNA” value (B7.1 mRNA) was “reduced”.
